IC50 data for 36 compounds are collected here from patent US9951021B2, “Compounds for inhibiting c-Myc/Max/DNA complex formation” (NATIONAL CANCER CENTER, priority 2016, dated 2018).

Each structure is given as a SMILES string.

The test concerns the target T1, recombinant c-Myc/Max (Homo sapiens, UniProt P01106+P61244).
T1 construct: made in house
In words: Electrophoretic mobility shift assay (EMSA): inhibitory activity on DNA binding of recombinant c-Myc/Max. Conditions: read-out: protein assay IC50. The protocol: 1) Preparation of Recombinant c-Myc and Max Proteins
Recombinant proteins were prepared as described in the following references: K. C. Jung et al., Fatty Acids, Inhibitors for the DNA Binding of c-Myc/Max Dimer, Suppress Proliferation and Induce Apoptosis of Differentiated HL-60 Human Leukemia Cell, Leukemia, 2006, 20(1), 122-7 or Kyung-Chae Jeong et al., Small-Molecule Inhibitors of c-Myc Transcriptional Factor Suppress Proliferation and Induce Apoptosis of Promyelocytic Leukemia Cell via Cell Cycle Arrest, Mol. BioSyst., 2010, 6, 1503-1509.
2) Electrophoretic Mobility Shift Assay (EMSA)
The inhibitory activity of each candidate compound on DNA binding of recombinant c-Myc/Max was measured using an electrophoretic mobility shift assay (EMSA). The ratio of protein-DNA complexes in each sample was evaluated by measuring band intensity. The oligonucleotides (E-box) corresponding to the consensus binding site of Myc/Max were dimerized through an annealing process. The protein mixture was incubated at room temperature for 5 minutes, and a DMSO solution containing each candidate compound was added thereto. The mixture was further incubated for 5 minutes, and the biotinylated DNA was added. To achieve a state of equilibrium, the final mixture was incubated at room temperature for 10 minutes. The protein-DNA complexes were separated from unbound free DNA by pre-electrophoresis using 8% polyacrylamide gel and 1×TBE buffer. After pre-electrophoresis, electrophoresis was performed at 120 V for 1 hour in 1×TBE buffer. Each band was visualized using HRP-conjugated streptavidin and an ECL solution, and band intensity was measured using image analysis software.
Background: In EMSA bound probe runs differently from free probe, usually more slowly.

T1 sequence (P01106 whole entry): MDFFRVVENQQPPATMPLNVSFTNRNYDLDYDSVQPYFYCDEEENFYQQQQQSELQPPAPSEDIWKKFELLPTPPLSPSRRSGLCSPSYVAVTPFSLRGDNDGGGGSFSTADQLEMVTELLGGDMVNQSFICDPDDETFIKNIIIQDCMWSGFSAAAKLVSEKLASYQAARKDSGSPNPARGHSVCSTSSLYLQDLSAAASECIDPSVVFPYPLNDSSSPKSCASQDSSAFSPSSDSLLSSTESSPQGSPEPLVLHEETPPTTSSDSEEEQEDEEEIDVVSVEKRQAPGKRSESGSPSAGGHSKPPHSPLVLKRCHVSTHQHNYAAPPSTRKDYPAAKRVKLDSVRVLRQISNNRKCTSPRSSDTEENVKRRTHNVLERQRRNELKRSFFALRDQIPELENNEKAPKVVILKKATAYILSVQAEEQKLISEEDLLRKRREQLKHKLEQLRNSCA
T1 sequence (P61244 whole entry): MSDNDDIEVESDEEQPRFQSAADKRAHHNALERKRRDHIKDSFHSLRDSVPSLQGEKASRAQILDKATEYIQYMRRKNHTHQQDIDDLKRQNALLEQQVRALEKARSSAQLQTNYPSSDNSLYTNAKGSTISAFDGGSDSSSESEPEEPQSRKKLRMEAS

A word on the IC50: it is the midpoint of a concentration-inhibition curve. For `CC(=O)c1c([S+](C)[O-])[nH]c2c(Br)ccc(Cl)c2c1=O` (stereo not drawn) [Compound 1, 3-acetyl-8-bromo-5-chloro-2-(methylsulfinyl)quinolin-4(1H)-one], the 50% inhibitory concentration (IC50) is less than 1000 nM.
`CSc1[nH]c2c(Br)ccc(Cl)c2c(=O)c1C(C)=O` [Compound 2, 3-acetyl-8-bromo-5-chloro-2-(methylthio)quinolin-4(1H)-one]: the IC50 is less than 1000 nM.
The figure for `CSc1c(C(C)=O)c(=O)c2c(Cl)ccc(Br)c2n1C` [Compound 5, 3-acetyl-8-bromo-5-chloro-1-methyl-2-(methylthio)quinolin-4(1H)-one] is less than 1000 nM.
For `CC(=O)c1c([S+](C)[O-])[nH]c2c(Cl)ccc(Cl)c2c1=O` (stereo not drawn) [Compound 6, 3-acetyl-5,8-dichloro-2-(methylsulfinyl)quinolin-4(1H)-one], the IC50 was less than 1000 nM.
As for `CSc1c(C(C)=O)c(=O)c2cc(F)ccc2n1C` [Compound 7, 3-acetyl-6-fluoro-1-methyl-2-(methylthio)quinolin-4(1H)-one], the figure is less than 1000 nM; as for `CSc1[nH]c2ccc(F)cc2c(=O)c1C(C)=O` [Compound 8, 1-(6-fluoro-4-hydroxy-2-(methylthio)quinolin-3-yl)ethan-1-one], less than 1000 nM; as for `CC(=O)c1c([S+](C)[O-])n(C(=O)c2ccc(Br)cc2)c2c(Br)ccc(Cl)c2c1=O` (stereo not drawn) [Compound 9, 3-acetyl-8-bromo-1-(4-bromobenzoyl)-5-chloro-2-(methylsulfinyl)quinolin-4(1H)-one], less than 1000 nM.
For the compound `CC(=O)c1c(SCc2ccc(Cl)cc2)[nH]c2c(Br)ccc(Cl)c2c1=O` [Compound 10, 3-acetyl-8-bromo-5-chloro-2-((4-chlorobenzyl)thio)quinolin-4(1H)-one], the 50% inhibitory concentration (IC50) was less than 1000 nM.
As for `CC(=O)c1c([S+]([O-])Cc2ccc(Cl)cc2)[nH]c2c(Br)ccc(Cl)c2c1=O` (stereo not drawn) [Compound 11, 3-acetyl-8-bromo-5-chloro-2-((4-chlorobenzyl)sulfinyl)quinolin-4(1H)-one], the figure is less than 1000 nM; as for `CC(=O)c1c(Sc2ccccc2)[nH]c2c(Br)ccc(Cl)c2c1=O` [Compound 12, 3-acetyl-8-bromo-5-chloro-2-(phenylthio)quinolin-4(1H)-one], less than 1000 nM; as for `CC(=O)c1c([S+]([O-])c2ccccc2)[nH]c2c(Br)ccc(Cl)c2c1=O` (stereo not drawn) [Compound 13, 3-acetyl-8-bromo-5-chloro-2-(phenylsulfinyl)quinolin-4(1H)-one], less than 1000 nM.
`COc1ccccc1Sc1[nH]c2c(Br)ccc(Cl)c2c(=O)c1C(C)=O` [Compound 14, 3-acetyl-8-bromo-5-chloro-2-((2-methoxyphenyl)thio)quinolin-4(1H)-one]: the IC50 was less than 1000 nM.
As to `COc1ccccc1[S+]([O-])c1[nH]c2c(Br)ccc(Cl)c2c(=O)c1C(C)=O` (stereo not drawn) [Compound 15, 3-acetyl-8-bromo-5-chloro-2-((2-methoxyphenyl)sulfinyl)quinolin-4(1H)-one], the IC50 was less than 1000 nM.
The figure for `CC(=O)c1c(Sc2ccc(Br)cc2)[nH]c2c(Br)ccc(Cl)c2c1=O` [Compound 16, 3-acetyl-8-bromo-2-((4-bromophenyl)thio)-5-chloroquinolin-4(1H)-one] is less than 1000 nM; for `CC(=O)c1c([S+]([O-])c2ccc(Br)cc2)[nH]c2c(Br)ccc(Cl)c2c1=O` (stereo not drawn) [Compound 17, 3-acetyl-8-bromo-2-((4-bromophenyl)sulfinyl)-5-chloroquinolin-4(1H)-one] it is less than 1000 nM; for `CSc1c(C(C)=O)c(=O)c2c(Cl)ccc(Br)c2n1C(C)=O` [Compound 18, 1,1′-(8-bromo-5-chloro-2-(methylthio)-4-oxoquinoline-1,3(4H)-diyl)bis(ethan-1-one)] it is less than 1000 nM.
As for `CC(=O)c1c([S+](C)[O-])n(C(C)=O)c2c(Br)ccc(Cl)c2c1=O` (stereo not drawn) [Compound 19, 1,1′-(8-bromo-5-chloro-2-(methylsulfinyl)-4-oxoquinoline-1,3-(4H)-diyl)bis(ethan-1-one)], the figure is less than 1000 nM; as for `CC(=O)c1c([S+]([O-])Cc2ccccc2)n(C(=O)c2ccc(Br)cc2)c2c(Br)ccc(Cl)c2c1=O` (stereo not drawn) [Compound 20, 3-acetyl-2-(benzylsulfinyl)-8-bromo-1-(4-bromobenzoyl)-5-chloroquinolin-4(1H)-one], less than 1000 nM; as for `CC(=O)c1c(S(C)(=O)=O)n(C(=O)c2ccc(Br)cc2)c2c(Br)ccc(Cl)c2c1=O` [Compound 21, 3-acetyl-8-bromo-1-(4-bromobenzoyl)-5-chloro-2-(methylsulfonyl)quinolin-4(1H)-one], less than 1000 nM.
Consider `CC(=O)c1c([S+](C)[O-])n(Cc2ccc(F)c(Cl)c2)c2c(Br)ccc(Cl)c2c1=O` (stereo not drawn) [Compound 22, 3-acetyl-8-bromo-5-chloro-1-(3-chloro-4-fluorobenzyl)-2-(methylsulfinyl)quinolin-4(1H)-one], for which the 50% inhibitory concentration (IC50) is less than 1000 nM.
As for `CC(=O)c1c(SCc2ccccc2)n(C(=O)c2ccc(Br)cc2)c2c(Br)ccc(Cl)c2c1=O` [Compound 23, 3-acetyl-2-(benzylthio)-8-bromo-1-(4-bromobenzoyl)-5-chloroquinolin-4(1H)-one], the figure is less than 1000 nM; as for `CC(=O)c1c(SC(C)C)[nH]c2c(Br)ccc(Cl)c2c1=O` [Compound 24, 3-acetyl-8-bromo-5-chloro-2-(isopropylthio)quinolin-4(1H)-one], less than 1000 nM.
For the compound `CC(=O)c1c([S+]([O-])C(C)C)[nH]c2c(Br)ccc(Cl)c2c1=O` (stereo not drawn) [Compound 25, 3-acetyl-8-bromo-5-chloro-2-(isopropylsulfinyl)quinolin-4(1H)-one], the IC50 is less than 1000 nM.
For `CC(=O)c1c([S+]([O-])C(C)c2ccccc2)[nH]c2c(Br)ccc(Cl)c2c1=O` (stereo not drawn) [Compound 26, 3-acetyl-8-bromo-5-chloro-2-((1-phenylethyl)sulfinyl)quinolin-4(1H)-one], the IC50 is less than 1000 nM.
As for `CC(=O)c1c(SCc2cccc(C#N)c2)[nH]c2c(Br)ccc(Cl)c2c1=O` [Compound 27, 3-(((3-acetyl-8-bromo-5-chloro-4-oxo-1,4-dihydroquinolin-2-yl)thio)methyl)benzonitrile], the figure is less than 1000 nM.
Take `CC(=O)c1c([S+]([O-])Cc2cccc(C#N)c2)[nH]c2c(Br)ccc(Cl)c2c1=O` (stereo not drawn) [Compound 28, 3-(((3-acetyl-8-bromo-5-chloro-4-oxo-1,4-dihydroquinolin-2-yl)sulfinyl)methyl)benzonitrile]: the 50% inhibitory concentration (IC50) is less than 1000 nM.
As for `CC(=O)c1c([S+]([O-])Cc2ccc(F)cc2F)[nH]c2c(Br)ccc(Cl)c2c1=O` (stereo not drawn) [Compound 29, 3-acetyl-8-bromo-5-chloro-2-((2,4-difluorobenzyl)sulfinyl)quinolin-4(1H)-one], the figure is less than 1000 nM.
The figure for `CC(=O)c1c(SCc2ccc(F)c(Cl)c2)[nH]c2c(Br)ccc(Cl)c2c1=O` [Compound 30, 3-acetyl-8-bromo-5-chloro-2-((3-chloro-4-fluorobenzyl)thio)quinolin-4(1H)-one] is less than 1000 nM; for `CC(=O)c1c([S+]([O-])Cc2ccc(F)c(Cl)c2)[nH]c2c(Br)ccc(Cl)c2c1=O` (stereo not drawn) [Compound 31, 3-acetyl-8-bromo-5-chloro-2-((3-chloro-4-fluorobenzyl)sulfinyl)quinolin-4(1H)-one] it is less than 1000 nM.
`CC(=O)c1c(SCc2ccc([N+](=O)[O-])cc2)[nH]c2c(Br)ccc(Cl)c2c1=O` [Compound 32, 3-acetyl-8-bromo-5-chloro-2-((4-nitrobenzyl)thio)quinolin-4(1H)-one]: the IC50 was less than 1000 nM.
The figure for `CC(=O)c1c(S(=O)(=O)Cc2ccccc2)[nH]c2c(Br)ccc(Cl)c2c1=O` [Compound 34, 3-acetyl-2-(benzylsulfonyl)-8-bromo-5-chloroquinolin-4(1H)-one] is less than 1000 nM; for `CSc1c(C(C)=O)c(=O)c2c(Cl)ccc(Br)c2n1S(C)(=O)=O` [Compound 35, 3-acetyl-8-bromo-5-chloro-1-(methylsulfonyl)-2-(methylthio)quinolin-4(1H)-one] it is less than 1000 nM; for `CC(=O)c1c([S+](C)[O-])n(S(=O)(=O)C(F)(F)F)c2c(Br)ccc(Cl)c2c1=O` (stereo not drawn) [Compound 36, 3-acetyl-8-bromo-5-chloro-2-(methylsulfinyl)-1-((trifluoromethyl)sulfonyl)quinolin-4(1H)-one] it is less than 1000 nM.
Take `CSc1c(C(C)=O)c(=O)c2c(Cl)ccc(Br)c2n1S(=O)(=O)c1ccc(Cl)cc1` [Compound 37, 3-acetyl-8-bromo-5-chloro-1-((4-chlorophenyl)sulfonyl)-2-(methylthio)quinolin-4(1H)-one]: the concentration for half-maximal inhibition (IC50) was less than 1000 nM.
With `CSc1c(C(C)=O)c(=O)c2c(Cl)ccc(Br)c2n1S(=O)(=O)c1ccc([N+](=O)[O-])cc1` [Compound 38, 3-acetyl-8-bromo-5-chloro-2-(methylthio)-1-((4-nitrophenyl)sulfonyl)quinolin-4(1H)-one], the IC50 was less than 1000 nM.
As for `CCS(=O)(=O)n1c([S+](C)[O-])c(C(C)=O)c(=O)c2c(Cl)ccc(Br)c21` (stereo not drawn) [Compound 39, 3-acetyl-8-bromo-5-chloro-1-(ethylsulfonyl)-2-(methylsulfinyl)quinolin-4(1H)-one], the figure is less than 1000 nM.
